Measurements from patent US10576085B2, “Substituted aminopurine compounds, compositions thereof, and methods of treatment therewith” (Signal Pharmaceuticals, LLC, priority 2016, dated 2020).
pIC50: −log10 of the molar value.

Columns and labels:
HT29 = assay: Proliferation, CellTiter-Glo, 72 h; format: cell-based
AGS = assay: Apoptosis, Caspase 3/7-Glo; format: cell-based; conditions: Gastric, CTNNB1 (G43E), KRAS (G12D), β-catenin Active
Description: (§1) Prior to testing, cells were grown and expanded in culture flasks to provide sufficient amounts of starting material. Cells were then diluted to the appropriate densities and added directly to the compound-spotted 384-well plates. Cells were allowed to grow for 72 h at 37° C./5% CO2. At the time when compound was added (t0), initial cell number was assessed via a viability assay (Cell Titer-Glo) by quantifying the level of luminescence generated by ATP present in viable cells. After 72 h, cell viability of compound-treated cells was assessed via Cell Titer-Glo and luminescence measurement. The apoptotic response to Compound 1 was assessed by quantifying the activities of caspase 3 and caspase 7 (Caspase 3/7-Glo) in treated cells and DMSO control cells.
(§2) Proliferation and apoptosis were measured using CellTiter-Glo and Caspase 3/7-Glo. CalX2 values are the lowest concentration at which Compound 1 induces a 2-fold increase of cleaved caspase 3/7 compared to DMSO control. Proliferation and apoptosis data is the average of 3 experiments.
(§3) The mutation status of BRAF, CTNNB1, KRAS, and EGFR in five cell lines evaluated was based on public data (COSMIC and CCLE) and confirmed internally. β-catenin status was evaluated using TOP Flash reporter system by transient transfection. A cell line was defined as β-catenin active if a ratio of Top Flash reporter over Fop Flash reporter is greater than 2. N/A: Not available. Transfection efficiency in Colo 205 (BRAF V600E) was too low to access its β-catenin activity using this approach. Antiproliferative and apoptotic activity of Compound 1 in the five cell lines were measured as described above.

Colo 205 = assay: Apoptosis, Caspase 3/7-Glo; format: cell-based; conditions: Colo 205, CRC; BRAF (V600E); β-catenin status N/A
Description: as §1, §2, §3

LOX-IMVI = assay: Apoptosis, Caspase 3/7-Glo; format: cell-based; conditions: Melanoma, BRAF (V600E), β-catenin Inactive
Description: as §1, §2, §3

SW48 = assay: Apoptosis, Caspase 3/7-Glo; format: cell-based; conditions: SW48, CRC; CTNNB1 (S33Y); β-catenin Active
Description: as §1, §2, §3

[1] = test system: TEAD reporter activity (YAP/TAZ responsive synthetic promoter); assay: TEAD reporter assay, 8×GTIIC-luciferase WI38 VA13 cells; format: cell-based; conditions: Homo sapiens, WI-38 VA13; 24 hour assay; cumulative data of three experiments
Description: TEAD reporter activity was analyzed using WI38 VA13 cells stably expressing a YAP/TAZ responsive synthetic promoter driving luciferase expression (8×GTIIC-luciferase). 10,000 cells per well were seeded on a white-walled 96-well plate and left overnight. After 16-20 hours, cells were treated with compound and TEAD reporter activity was measured 24 or 72 hours later using Bright Glo luciferase assay (Promega) according to the manufacturers instructions. This assay was performed 3 times for Compound 1 and twice for Trametinib.

AGS (gastric) cells = assay: Long term colony assay; format: cell-based
Description: (§4) Compound 1 was assessed for its ability to inhibit the colony formation of cancer cells via a long-term colony forming assay. Cells and compounds were added to 96-well plates and were monitored for up to 8 weeks for the formation of colonies. Compound and media were replenished every 1 week throughout the course of the assay. Colony formation was detected via imaging at 4× on the IncuCyte ZOOM System. […] (FIG. 23A-23D).

HCT-116 (colo) cells = assay: Long term colony assay; format: cell-based; conditions: up to 8 weeks
Description: as §4

Hep3B (HCC) cells = assay: Long term colony assay; format: cell-based; conditions: up to 8 weeks
Description: as §4

SW48 (colo) cells = assay: Long term colony assay; format: cell-based; conditions: up to 8 weeks
Description: as §4

PD-L1 = PD-L1 expression, Western blot, LOX-IMVI (BRAF V600E); format: cell-based
Description: The effect of Compound 1 was evaluated on PD-L1 expression levels. Cells were cultured in presence or absence of Compound 1 for indicated time before expression levels of PD-L1, DUSP4 and α-tubulin or α-actin were measured by Western blot. To detect surface levels of PD-L1, cells were treated with DMSO or Compound 1 at indicated concentrations for 48 h and cell surface expression of PD-L1 was detected using flow cytometry analysis (FACS) with an APC-labeled antibody to PD-L1 (clone 29E.1A3; BioLegend, San Diego, Calif.). Geometric mean of PD-L1 positive cells was determined by FlowJo 10 (Treestar, Ashland, Oreg.).

SIK = assay: Known kinases inhibited (no method given); format: biochemical

SMILES: C[C@]1(C(N)=O)CC[C@@H](n2c(Nc3c(Cl)cc(Cl)cc3Cl)nc3cnc(N[C@@H]4CCOC[C@H]4F)nc32)CC1 [Compound 1, cis-4-[2-{[(3S,4R)-3-fluorooxan-4-yl]amino}-8-(2,4,6-trichloroanilino)-9H-purin-9-yl]-1-methyl cyclohexane-1-carboxamide]
- Mode of growth effect (cytotoxic / cytostatic) (HT29): cytostatic
- Apoptosis induction CalX2 (AGS): 0.004 ± 0.002 µM
- Apoptosis induction CalX2 (Colo 205): 0.053 ± 0.039 µM
- Apoptosis induction CalX2 (LOX-IMVI): 0.034 ± 0.028 µM
- Apoptosis induction CalX2 (SW48): 0.005 ± 0.001 µM
- pIC50 [1]: < 5.00
- Colony formation of AGS cells resistant to trametinib (AGS (gastric) cells; AGS cells resistant to MEK inhibitor trametinib): inhibit colony formation
- Inhibition of colony formation vs MEK inhibitors (trametinib) and ERK inhibitors (GDC0994) (AGS (gastric) cells; AGS, up to 8 weeks): greater levels of inhibition than seen with treatment with MEK inhibitors or ERK inhibitors
- Inhibition of colony formation vs MEK inhibitors (trametinib) and ERK inhibitors (GDC0994) (HCT-116 (colo) cells): greater levels of inhibition than seen with treatment with MEK inhibitors or ERK inhibitors
- Inhibition of colony formation vs MEK inhibitors (trametinib) and ERK inhibitors (GDC0994) (Hep3B (HCC) cells): greater levels of inhibition than seen with treatment with MEK inhibitors or ERK inhibitors
- Inhibition of colony formation vs MEK inhibitors (trametinib) and ERK inhibitors (GDC0994) (SW48 (colo) cells): greater levels of inhibition than seen with treatment with MEK inhibitors or ERK inhibitors
- PD-L1 expression (PD-L1): directly inhibits PD-L1 expression
- Kinase inhibition (SIK): inhibited
